Source: paper PMC8151276, “An Integrated Approach toward NanoBRET Tracers for Analysis of GPCR Ligand Engagement” (Molecules, 2021)

Columns and labels:
Assay type in all cases: binding
C5AR1 = molecular target: T1, C5AR1 (Homo sapiens, UniProt P21730); assay: NanoBRET screen HiBiT-C5AR1 in HEK293
T1 construct: purchased Promega (in-house HiBiT-GPCR construct library, NanoBRET)
T1 sequence (P21730 1-350): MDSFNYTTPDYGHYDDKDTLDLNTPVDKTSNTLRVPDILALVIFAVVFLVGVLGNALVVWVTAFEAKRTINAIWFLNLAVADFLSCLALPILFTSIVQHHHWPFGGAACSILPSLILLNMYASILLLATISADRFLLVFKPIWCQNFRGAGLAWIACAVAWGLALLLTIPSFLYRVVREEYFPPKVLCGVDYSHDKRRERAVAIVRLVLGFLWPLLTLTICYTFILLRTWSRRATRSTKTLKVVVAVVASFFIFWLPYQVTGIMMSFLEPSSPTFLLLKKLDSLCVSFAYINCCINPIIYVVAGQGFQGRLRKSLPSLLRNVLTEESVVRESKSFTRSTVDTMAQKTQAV
Method: (§1) Each tracer candidate was screened across the entire library of HiBiT-GPCR constructs using NanoBRET as the detection modality. As depicted in Figure 4A, the specificity of interactions was evaluated through decrease in BRET due to competitive displacement of a bound tracer by excess parental compound. Each tracer was analyzed for binding to each HiBiT-GPCR fusion in the absence and in the presence of competing parental compound. Briefly, HEK293 cells were transfected with HiBiT-GPCR constructs diluted into promoterless DNA to reduce expression and maximize translocation to the cell surface. Each tracer candidate was then screened at concentrations of 1 μM and 0.1 μM across cells expressing these fusions. Cells were treated for 1.5 h with tracer either alone or in the presence of 20 μM competing parental compound (i.e., control). BRET was measured upon addition of purified LgBiT and subsequent complementation with HiBiT genetically fused to a GPCR. The specificity of interactions was assessed through a decrease in BRET signal due to competitive displacement of the bound tracer. To further gauge the robustness of these interactions, the fold response over the control (i.e., BRETtracer/BRETcontrol) was calculated. We chose a 1.5-fold response, which translates to ≥7-fold signal over noise as the minimal threshold required to score an interaction as positive. […]. Below we highlight the screening results obtained for our exemplary fluorescent tracers based on Clozapine, Amitriptyline and AZD1283.
(§2) HiBiT-GPCR DNA constructs were diluted in 10 mM Tris pH 8 to a final concentration of 0.01 μg/μL, arrayed in 96-well plates and stored at −20 °C. For transfection, HEK293 cells were suspended in Opti-MEM (without phenol red) supplemented with 2% fetal bovine serum (Seradigm) and 100 units/mL penicillin–streptomycin (Gibco) at a final concentration of 220,000 cells/mL and dispensed into white 96-well plates at 90 μL/well. Subsequent transfections and screens were carried using an Agilent Bravo Automated Liquid Handling Platform. First, the 96-well HiBiT DNA arrays were diluted 25-fold in Opti-MEM (without serum or phenol red) to a final concentration of 0.0004 μg/μL and 20 μL of the diluted DNAs were transferred into new 96-well plates. Next, promoterless carrier DNA (1 μg/μL) was diluted 25-fold (0.04 μg/μL) and then dispensed into the diluted arrays at 20 μL/well. Following brief mixing, Viafect transfection reagent (Promega) diluted 16-fold into Opti-MEM was dispensed into the plates at 40 μL/well. After mixing by pipetting, plates were incubated for 10 min on the pipetting station deck. The DNA-transfection reagent complexes were then added to plates containing cells. To facilitate the screen, 10 μL of DNA-transfection reagent complexes were added in duplicates to the top 4 and bottom 4 rows, resulting in two identical 48-well arrays per plate. Plates with transfected cells were incubated for 18–20 h at 37 °C/5% CO2. A screen of each tracer across the entire library using two different concentrations requires duplicate plates of transfected cells. Depending on the number of tracers being screened, transfections can be scaled up using the same ratios. The next day, for each tracer, four 20× screening solutions in tracer dilution buffer (Promega) were prepared: two duplicates at final concentration of 20 μM and two duplicates at a final concentration of 2 μM. A competing unmodified compound was added to one of each duplicate at a final concentration of 400 μM. The four resulting solutions were diluted 4-fold in Opti-MEM without serum or phenol red to generate 5× solutions (5 µM and 0.5 µM tracer +/− 100 μM competing compound). To screen the library, a BioTek MultiFlo FX liquid dispenser was used to dispense 22.5 µL of tracer solution to the top 4 rows and 22.5 µL tracer + competing compound solution to the 4 bottom rows. Plates were briefly mixed on an orbital shaker and incubated for 1.5 h at room temperature. […]

P2RY14 = molecular target: T2, P2RY14 (Homo sapiens, UniProt Q15391); assay: NanoBRET screen HiBiT-P2RY14 in HEK293
T2 construct: purchased Promega (in-house HiBiT-GPCR construct library, NanoBRET)
T2 sequence (Q15391 1-338): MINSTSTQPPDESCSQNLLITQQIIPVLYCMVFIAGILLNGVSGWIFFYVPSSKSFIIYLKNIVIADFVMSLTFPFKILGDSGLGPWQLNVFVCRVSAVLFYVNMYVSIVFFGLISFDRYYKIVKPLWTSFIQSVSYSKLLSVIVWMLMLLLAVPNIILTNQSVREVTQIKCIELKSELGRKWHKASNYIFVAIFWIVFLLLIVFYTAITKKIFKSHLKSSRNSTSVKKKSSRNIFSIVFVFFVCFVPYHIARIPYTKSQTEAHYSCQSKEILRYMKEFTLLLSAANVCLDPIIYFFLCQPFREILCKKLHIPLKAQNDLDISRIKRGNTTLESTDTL
Method: as §1, §2

CCR6 = molecular target: T3, CCR6 (Homo sapiens, UniProt P51684); assay: NanoBRET screen HiBiT-CCR6 in HEK293
T3 construct: purchased Promega (in-house HiBiT-GPCR construct library, NanoBRET)
T3 sequence (P51684 1-374): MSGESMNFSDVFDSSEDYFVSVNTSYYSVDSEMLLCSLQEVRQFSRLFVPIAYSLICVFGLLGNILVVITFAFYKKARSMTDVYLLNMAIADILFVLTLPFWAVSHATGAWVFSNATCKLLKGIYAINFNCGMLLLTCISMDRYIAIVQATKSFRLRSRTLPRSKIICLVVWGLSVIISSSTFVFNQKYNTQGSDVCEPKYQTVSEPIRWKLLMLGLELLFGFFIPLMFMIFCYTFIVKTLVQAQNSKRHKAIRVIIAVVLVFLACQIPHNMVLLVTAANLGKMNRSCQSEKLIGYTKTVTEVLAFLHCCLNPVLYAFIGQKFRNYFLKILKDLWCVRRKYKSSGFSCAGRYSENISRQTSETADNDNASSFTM
Method: as §1, §2

[1] = tracer at 0.1μM, listed as amitriptyline-b-2-NB590
[2] = tracer at 1μM, listed as amitriptyline-b-2-NB590

SMILES	NanoBRET Fold Response (C5AR1; C5AR1, tracer 0.1μM)	NanoBRET Fold Response (C5AR1; C5AR1, tracer 1μM)	NanoBRET Fold Response (P2RY14; P2RY14, tracer 0.1μM)	NanoBRET Fold Response (P2RY14; P2RY14, tracer 1μM)	NanoBRET Fold Response (CCR6; CCR6, tracer 0.1μM)	NanoBRET Fold Response (CCR6; CCR6, tracer 1μM)	other results
N#CN=C(NCCCOc1cccc(CN2CCCCC2)c1)NCCNC(=O)CCOCCOCCOCCOCCNC(=O)CCc1ccc2n1[B-](F)(F)[N+]1=C(c3ccc[nH]3)C=CC1=C2 [Aminopotentidine-2-NB590]	0.99	0.98	0.98	0.91	0.96	1.00	
COc1ccc2c(n1)c(CCNC(C)=O)cn2CCNC(=O)CCc1ccc2n1[B-](F)(F)[N+]1=C(c3ccc[nH]3)C=CC1=C2 [Azamelatonin-1-NB590]							NanoBRET Fold Response (C5AR1; 0.1μM tracer): 0.90; NanoBRET Fold Response (C5AR1; 1μM tracer): 0.94; NanoBRET Fold Response (P2RY14; 0.1μM tracer): 0.98; NanoBRET Fold Response (P2RY14; 1μM tracer): 0.98; NanoBRET Fold Response (CCR6; 0.1μM tracer): 0.86; NanoBRET Fold Response (CCR6; 1μM tracer): 0.98
CN(CCC=C1c2ccccc2CCc2ccccc21)C(=O)CCOCCOCCOCCOCCNC(=O)CCc1ccc2n1[B-](F)(F)[N+]1=C(c3ccc[nH]3)C=CC1=C2 [Amitriptyline-e-2-NB590]							NanoBRET Fold Response (C5AR1; tracer at 1μM): 1.02; NanoBRET Fold Response (P2RY14; tracer at 1μM): 1.03; NanoBRET Fold Response (CCR6; tracer at 1μM): 1.00
CC(C)N(CC[C@H](c1ccccc1)c1cc(CCNC(=O)c2ccc(CNC(=O)CCc3ccc4n3[B-](F)(F)[N+]3=C(c5ccc[nH]5)C=CC3=C4)cc2)ccc1O)C(C)C [Tolterodine-BZ-NB590]	1.01	1.11	0.86	0.88	1.05	1.03	
O=C(CCc1ccc2n1[B-](F)(F)[N+]1=C(c3ccc[nH]3)C=CC1=C2)NCCOCCOCCNC(=O)OCCOCCN1CCN(C2=Nc3ccccc3Sc3ccccc32)CC1 [Quetiapine-a-2-NB590]	1.07	0.84	0.96	0.93	1.05	0.95	
Cc1cc2c(s1)Nc1ccccc1N=C2N1CCN(CCCNC(=O)CCOCCOCCOCCOCCNC(=O)CCc2ccc3n2[B-](F)(F)[N+]2=C(c4ccc[nH]4)C=CC2=C3)CC1 [Olanzapine-a-2-NB590]	1.06	1.09	1.05	1.00	1.00	1.21	
CN(C)CCC=C1c2ccccc2CCc2ccc(C(=O)NCCNC(=O)CCOCCOCCOCCOCCNC(=O)CCc3ccc4n3[B-](F)(F)[N+]3=C(c5ccc[nH]5)C=CC3=C4)cc21 [Amitriptyline-b-2-NB590]							NanoBRET Fold Response (C5AR1; [1]): 1.01; NanoBRET Fold Response (C5AR1; tracer at 1μM): 0.97; NanoBRET Fold Response (P2RY14; [1]): 1.12; NanoBRET Fold Response (P2RY14; [2]): 0.77; NanoBRET Fold Response (CCR6; [1]): 1.01; NanoBRET Fold Response (CCR6; [2]): 1.01
O=C(CCOCCOCCOCCOCCNC(=O)CCc1ccc2n1[B-](F)(F)[N+]1=C(c3ccc[nH]3)C=CC1=C2)NCCCN1CCN(C2=Nc3cc(Cl)ccc3Nc3ccccc32)CC1 [Clozapine-a-2-NB590]							NanoBRET Fold Response (C5AR1; C5AR1, 0.1μM tracer): 1.04; NanoBRET Fold Response (C5AR1; C5AR1, 1μM tracer): 1.11; NanoBRET Fold Response (P2RY14; P2RY14, 0.1μM tracer): 1.07; NanoBRET Fold Response (P2RY14; P2RY14, 1μM tracer): 0.84; NanoBRET Fold Response (CCR6; CCR6, 0.1μM tracer): 1.05; NanoBRET Fold Response (CCR6; CCR6, 1μM tracer): 0.97
CN1CCN(C2=Nc3cc(Cl)ccc3Nc3ccc(CNC(=O)CCOCCOCCOCCOCCNC(=O)CCc4ccc5n4[B-](F)(F)[N+]4=C(c6ccc[nH]6)C=CC4=C5)cc32)CC1 [Clozapine-b-2-NB590]							NanoBRET Fold Response (C5AR1; C5AR1, 0.1μM tracer): 0.98; NanoBRET Fold Response (C5AR1; C5AR1, 1μM tracer): 1.02; NanoBRET Fold Response (P2RY14; P2RY14, 0.1μM tracer): 1.01; NanoBRET Fold Response (P2RY14; P2RY14, 1μM tracer): 0.99; NanoBRET Fold Response (CCR6; CCR6, 0.1μM tracer): 1.03; NanoBRET Fold Response (CCR6; CCR6, 1μM tracer): 0.97
Cc1nc2n(c(=O)c1CCN1CCC(c3noc4cc(F)ccc34)CC1)CCCC2OC(=O)NCCOCCOCCOCCOCCNC(=O)CCc1ccc2n1[B-](F)(F)[N+]1=C(c3ccc[nH]3)C=CC1=C2 (stereo not drawn) [Risperidone-2-NB590]	0.95	0.99	1.02	0.93	1.07	0.91	
